Earlier results, collected in US20250213572A1, “TYK2 INHIBITORS AND USES THEREOF” (Takeda Pharmaceutical Company Limited, priority 2022, published 2025).

Assays:
[1] = test system: moderate-to-severe psoriasis; conditions: 30 mg twice-daily; at four weeks; cited from earlier work
[2] = test system: moderate-to-severe ulcerative colitis; conditions: 6 mg once-daily; cited from earlier work
[3] = test system: psoriasis; conditions: dose ranges used in the Phase 3 trials; cited from earlier work

Q: Which “mean PASI reduction” value [1] does the source give for `CCOc1cc([C@@H](CS(C)(=O)=O)N2C(=O)c3cccc(NC(C)=O)c3C2=O)ccc1OC` [Otezla®] here?
A: 37%

Q: Which results are given for deucravacitinib [reference compound]?
A: primary endpoint of clinical remission at 12 weeks [2]: did not achieve its primary endpoint of clinical remission at 12 weeks; increase of responses at 12 weeks compared to four weeks [3]: three- to four-fold

Q: Which “increase of responses at 12 weeks compared to four weeks” value [3] does the source give for “guselkumab: an anti-IL-23 monoclonal antibody” here?
A: three- to four-fold
